Assays:
[1] = molecular target: T1, glucocorticoid receptor (GR) (Homo sapiens, UniProt P04150); experiment: GR gene reporter assay in AZ-GR cells, agonist mode; type: cell-based; conditions: up to / at 100 µM, 24 h
T1 sequence (P04150 1-777): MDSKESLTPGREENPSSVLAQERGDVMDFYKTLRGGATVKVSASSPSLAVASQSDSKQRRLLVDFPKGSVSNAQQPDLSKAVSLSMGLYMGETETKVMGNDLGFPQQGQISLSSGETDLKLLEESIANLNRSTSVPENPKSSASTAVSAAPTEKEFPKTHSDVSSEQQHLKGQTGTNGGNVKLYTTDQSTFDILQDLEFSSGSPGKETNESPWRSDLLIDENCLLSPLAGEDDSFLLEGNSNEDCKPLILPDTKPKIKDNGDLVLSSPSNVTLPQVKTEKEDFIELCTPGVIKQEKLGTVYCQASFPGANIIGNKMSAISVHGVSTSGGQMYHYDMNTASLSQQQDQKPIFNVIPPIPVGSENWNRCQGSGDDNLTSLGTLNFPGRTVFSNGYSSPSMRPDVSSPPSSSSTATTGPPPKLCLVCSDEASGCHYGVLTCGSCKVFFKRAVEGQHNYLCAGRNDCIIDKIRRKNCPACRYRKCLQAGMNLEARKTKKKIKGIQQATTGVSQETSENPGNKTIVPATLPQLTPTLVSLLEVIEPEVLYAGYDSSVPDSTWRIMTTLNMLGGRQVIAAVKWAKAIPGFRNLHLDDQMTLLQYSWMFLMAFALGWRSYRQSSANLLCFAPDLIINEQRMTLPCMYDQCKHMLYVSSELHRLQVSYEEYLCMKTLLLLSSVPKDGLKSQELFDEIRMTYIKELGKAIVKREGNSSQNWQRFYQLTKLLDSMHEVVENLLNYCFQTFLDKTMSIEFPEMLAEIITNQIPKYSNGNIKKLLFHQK
Text: (§1) A stably transfected gene reporter cell line AZ-AHR, derived from human hepatoma HepG2 cells transfected with a construct containing several AhR binding sites upstream of a luciferase reporter gene, was used for assessment of AhR transcriptional activity. A stably transfected gene reporter cell line AZ-GR, derived from human cervix carcinoma HeLa cells transfected with a construct containing several GR response elements upstream of a luciferase reporter gene, was used for assessment of GR transcriptional activity. Cells were incubated for 24 h with tested compounds and/or vehicle (DMSO; 0.1% v/v), in the presence or absence of TCDD (5 nM; AZ-AHR cells) or DEX (100 nM; AZ-GR cells). After the treatments, cells were lysed and luciferase activity was measured. In parallel, cell viability was determined by conventional MTT test.
There is multiple evidence for the role of glucocorticoid receptor (GR) in regulation of AhR activity. […] Gene reporter assays were performed in agonist and antagonist mode (similarly as described in section 3.1.).

[2] = molecular target: T2, aryl hydrocarbon receptor AhR (Homo sapiens, UniProt P35869); experiment: AhR gene reporter assay in AZ-AHR cells, antagonist mode (TCDD 5 nM); type: cell-based; conditions: 24 h, in the presence of TCDD 5 nM
T2 construct: endogenous in cells; host or cells: AZ-AHR (stably transfected reporter line derived from HepG2)
T2 sequence (P35869 11-848): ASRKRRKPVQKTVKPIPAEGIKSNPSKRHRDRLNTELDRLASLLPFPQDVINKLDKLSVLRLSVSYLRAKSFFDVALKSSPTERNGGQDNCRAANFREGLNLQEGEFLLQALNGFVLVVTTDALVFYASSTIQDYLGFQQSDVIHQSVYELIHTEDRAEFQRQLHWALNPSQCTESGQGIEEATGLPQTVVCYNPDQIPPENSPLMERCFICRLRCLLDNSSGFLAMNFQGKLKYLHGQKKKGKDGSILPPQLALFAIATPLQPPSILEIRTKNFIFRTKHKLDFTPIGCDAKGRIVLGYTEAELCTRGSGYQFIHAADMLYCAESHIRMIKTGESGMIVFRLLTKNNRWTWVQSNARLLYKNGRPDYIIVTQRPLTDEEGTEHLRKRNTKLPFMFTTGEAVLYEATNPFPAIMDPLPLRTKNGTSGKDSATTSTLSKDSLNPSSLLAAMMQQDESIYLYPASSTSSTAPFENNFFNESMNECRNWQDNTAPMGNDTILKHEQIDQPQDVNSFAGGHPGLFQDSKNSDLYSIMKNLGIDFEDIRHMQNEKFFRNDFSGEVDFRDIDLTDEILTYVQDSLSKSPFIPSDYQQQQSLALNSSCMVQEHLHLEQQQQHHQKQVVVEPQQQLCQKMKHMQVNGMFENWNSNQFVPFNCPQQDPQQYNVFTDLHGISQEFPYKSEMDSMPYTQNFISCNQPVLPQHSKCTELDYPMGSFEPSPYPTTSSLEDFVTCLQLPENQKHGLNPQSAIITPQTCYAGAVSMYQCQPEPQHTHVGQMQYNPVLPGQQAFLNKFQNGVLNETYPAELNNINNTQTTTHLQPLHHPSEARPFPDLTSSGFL
Text: as §1
Gene reporter assays were performed in two different experimental layouts. In agonist mode, cells were treated with increasing concentrations of tested compounds, and the half-maximal effective concentrations (EC50) were calculated.

[3] = test system: tyrosine aminotransferase (TAT) mRNA; experiment: TAT mRNA in HepG2 cells (qRT-PCR); type: cell-based, human; conditions: HepG2, 1, 30, 50 µM, 24 h

Row | SMILES | increase of luciferase activity, agonist mode [1] | IC50 [2] [µM] | TAT mRNA induction (in words) [3]
1 | CC(=O)N1CCN(c2ccc(OC[C@H]3CO[C@](Cn4ccnc4)(c4ccc(Cl)cc4Cl)O3)cc2)CC1 [(+)-KET, (2R,4S)-(+)-KET] | did not induce luciferase activity | 22.3 ± 6.3 | strong, concentration-dependent induction
2 | CC(=O)N1CCN(c2ccc(OCC3COC(Cn4ccnc4)(c4ccc(Cl)cc4Cl)O3)cc2)CC1 (racemic) [rac-KET, ketoconazole] | approximately 5 fold | 31.1 ± 3.7 | strong, concentration-dependent induction
